Reference: ChEMBL document CHEMBL4392885, “Investigation of Premyrsinane and Myrsinane Esters in Euphorbia cupanii and Euphobia pithyusa with MS2LDA and Combinatorial Molecular Network Annotation Propagation” (J Nat Prod, 2019)

What was measured:
Chikungunya virus = test: Antiviral activity against Chikungunya virus Indian ocean strain 899 infected in African green monkey Vero A cells assessed as reduction in viral-induced cytopathic effect after 6 to 7 days by MTS/PMS assay; format: functional, organism-based; conditions: Indian ocean strain 899, Vero
[1] = Selectivity index, ratio of CC50 for African green monkey Vero A cells to EC50 for Chikungunya virus Indian ocean strain 899 infected in African green monkey Vero A cells; format: toxicity; conditions: read-out: Ratio CC50/EC50

| SMILES | EC50 (Chikungunya virus) | selectivity ratio [1] |
| --- | --- | --- |
| CCCCC/C=C/C=C\C(=O)O[C@@H]1[C@@H](C)[C@@]2(O)[C@@H](C=C(CO)C[C@]3(O)C(=O)C(C)=C[C@@H]23)[C@@H]2C(C)(C)[C@]12OC(=O)C(C)C | < 800 nM | > 12 |
| CCCCC/C=C\C=C\C(=O)O[C@@H]1[C@@H](C)[C@@]2(O)[C@@H](C=C(CO)C[C@]3(O)C(=O)C(C)=C[C@@H]23)[C@@H]2C(C)(C)[C@]12OC(=O)C(C)C | < 800 nM | > 12 |
| CCCCC/C=C\C=C\C(=O)O[C@@H]1[C@@H](C)[C@@]2(O)[C@@H](C=C(CO)C[C@]3(O)C(=O)C(C)=C[C@@H]23)[C@@H]2C(C)(C)[C@]12OC(=O)C(C)CC (stereo partly drawn) | < 800 nM | > 12 |
| CCCCC/C=C/C=C\C(=O)O[C@@H]1[C@@H](C)[C@@]2(O)[C@@H](C(=O)C(CO)=C[C@]3(O)C(=O)C(C)=C[C@@H]23)[C@@H]2C(C)(C)[C@]12OC(=O)C(C)C | 4500 nM | 6.3 |
